For this series the following is noted: human, in vivo. The text has this: Treatment of endocrine disorders, such as Cushing's Syndrome, can be particularly difficult to manage due to less predictable patient response to administration of a synthetic steroid, such as mifepristone. Mifepristone is a synthetic steroid that binds progesterone and glucocorticoid receptors and has been employed to treat a number of conditions including meningioma, uterine fibroids, hyperadrenocorticism, metabolic, oncologic, opthamalogic, central nervous system disorders and certain psychiatric illnesses. Examples of such metabolic disorders include diabetes, obesity, antipsychotic induced weight gain, hypertension, and osteoporosis; examples of oncologic illness include various types of cancers, including ovarian cancer and prostate cancer; examples of central nervous system disorders include Alzheimer's Disease, neurodegenerative diseases, post traumatic stress disorder, and alcohol dependence; and examples of opthamalogical conditions include glaucoma and central serous retinopathy. […] For a particular dose of mifepristone, the plasma drug concentration can differ by as much as 800% from one patient to the next. The varied plasma drug concentration can result in some patients not receiving an efficacious dose of mifepristone. For these patients in particular, it is necessary to improve the pharmacokinetics of mifepristone upon administration. […]

The results in this text go back to patent US11610666B2, “Systems and methods of managing treatment of a chronic condition by symptom tracking” (CORCEPT THERAPEUTICS, INC., priority 2014, dated 2023).

On to `CC#C[C@]1(O)CC[C@H]2[C@@H]3CCC4=CC(=O)CCC4=C3[C@@H](c3ccc(N(C)C)cc3)C[C@@]21C` [mifepristone], for which the “difference in plasma drug concentration from one patient to the next” value is listed as at most 800%.
